Experimental data taken from patent US9113629B2, “4-amino-6-(4-substituted-phenyl)-picolinates and 6-amino-2-(4-substituted-phenyl)-pyrimidine-4-carboxylates and their use as herbicides” (DOW AGROSCIENCES LLC, priority 2013, dated 2015).

Test system: Key Broadleaf Weed and Crop Species
Assay: Post-emergent Test II herbicidal activity (Table 5)
Assay type: in vivo
Conditions: post-emergence, 336 h; ABUTH: velvetleaf (Abutilon theophrasti); 70 g ai/ha; post-emergent; 14 days after application; read-out: Visual Growth Reduction (%) 14 Days After Application ABUTH
How it was run: (§1)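 Greenhouse post-emergent assay: seedlings (first/second true leaf) in Metro-Mix 360 were sprayed at 187 L/ha at a top rate plus twofold dilutions down to 1/16×; solvent-blank controls were included. Percent visual injury was read at 14 d.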
With `COC(=O)c1nc(-c2ccc(I)cc2F)cc(N)c1Cl` [Compound 159] the pest or weed control at 70 g/ha was 95 to 100%.

Same assay, conditions: post-emergence, 336 h; ABUTH: velvetleaf (Abutilon theophrasti); 140 g ai/ha; post-emergent; 14 days after application; read-out: Visual Growth Reduction (%) 14 Days After Application ABUTH
With `COC(=O)c1nc(-c2ccc(I)cc2F)cc(N)c1Cl` [Compound 159] the pest or weed control at 140 g/ha was 95 to 100%.

Same assay, conditions: post-emergence, 336 h; AMARE: redroot pigweed (Amaranthus retroflexus); 70 g ai/ha; post-emergent; 14 days after application; read-out: Visual Growth Reduction (%) 14 Days After Application AMARE
`COC(=O)c1nc(-c2ccc(I)cc2F)cc(N)c1Cl` [Compound 159] gave a pest or weed control at 70 g/ha of 95 to 100%.

Same assay, conditions: post-emergence, 336 h; AMARE: redroot pigweed (Amaranthus retroflexus); 140 g ai/ha; post-emergent; 14 days after application; read-out: Visual Growth Reduction (%) 14 Days After Application AMARE
`COC(=O)c1nc(-c2ccc(I)cc2F)cc(N)c1Cl` [Compound 159] showed a pest or weed control at 140 g/ha of 95 to 100%.

Same assay, conditions: post-emergence, 336 h; BRSNN: oilseed-rape, canola (Brassica napus); 70 g ai/ha; post-emergent; 14 days after application; read-out: Visual Growth Reduction (%) 14 Days After Application BRSNN
Work on `COC(=O)c1nc(-c2ccc(I)cc2F)cc(N)c1Cl` [Compound 159] yielded a pest or weed control at 70 g/ha of 85 to 94%.

Same assay, conditions: post-emergence, 336 h; BRSNN: oilseed-rape, canola (Brassica napus); 140 g ai/ha; post-emergent; 14 days after application; read-out: Visual Growth Reduction (%) 14 Days After Application BRSNN
With `COC(=O)c1nc(-c2ccc(I)cc2F)cc(N)c1Cl` [Compound 159] the pest or weed control at 140 g/ha was 85 to 94%.

Same assay, conditions: post-emergence, 336 h; CHEAL: lambsquarters (Chenopodium album); 70 g ai/ha; post-emergent; 14 days after application; read-out: Visual Growth Reduction (%) 14 Days After Application CHEAL
With `COC(=O)c1nc(-c2ccc(I)cc2F)cc(N)c1Cl` [Compound 159] the pest or weed control at 70 g/ha was 95 to 100%.

Same assay, conditions: post-emergence, 336 h; CHEAL: lambsquarters (Chenopodium album); 140 g ai/ha; post-emergent; 14 days after application; read-out: Visual Growth Reduction (%) 14 Days After Application CHEAL
For `COC(=O)c1nc(-c2ccc(I)cc2F)cc(N)c1Cl` [Compound 159], the pest or weed control at 140 g/ha was 95 to 100%.

Same assay, conditions: post-emergence, 336 h; EPHHL: wild poinsettia (Euphorbia heterophylla); 70 g ai/ha; post-emergent; 14 days after application; read-out: Visual Growth Reduction (%) 14 Days After Application EPHHL
With `COC(=O)c1nc(-c2ccc(I)cc2F)cc(N)c1Cl` [Compound 159] the pest or weed control at 70 g/ha was 95 to 100%.

Same assay, conditions: post-emergence, 336 h; EPHHL: wild poinsettia (Euphorbia heterophylla); 140 g ai/ha; post-emergent; 14 days after application; read-out: Visual Growth Reduction (%) 14 Days After Application EPHHL
`COC(=O)c1nc(-c2ccc(I)cc2F)cc(N)c1Cl` [Compound 159] showed a pest or weed control at 140 g/ha of 95 to 100%.

Same assay, conditions: post-emergence, 336 h; HELAN: sunflower (Helianthus annuus); 70 g ai/ha; post-emergent; 14 days after application; read-out: Visual Growth Reduction (%) 14 Days After Application HELAN
For `COC(=O)c1nc(-c2ccc(I)cc2F)cc(N)c1Cl` [Compound 159], the pest or weed control at 70 g/ha was 75 to 84%.

Same assay, conditions: post-emergence, 336 h; HELAN: sunflower (Helianthus annuus); 140 g ai/ha; post-emergent; 14 days after application; read-out: Visual Growth Reduction (%) 14 Days After Application HELAN
In the case of `COC(=O)c1nc(-c2ccc(I)cc2F)cc(N)c1Cl` [Compound 159], the pest or weed control at 140 g/ha was 95 to 100%.

Same assay, conditions: post-emergence, 336 h; VIOTR: wild pansy (Viola tricolor); 70 g ai/ha; post-emergent; 14 days after application; read-out: Visual Growth Reduction (%) 14 Days After Application VIOTR
Compound `COC(=O)c1nc(-c2ccc(I)cc2F)cc(N)c1Cl` [Compound 159] has a pest or weed control at 70 g/ha of 0 to 29%.

Same assay, conditions: post-emergence, 336 h; VIOTR: wild pansy (Viola tricolor); 140 g ai/ha; post-emergent; 14 days after application; read-out: Visual Growth Reduction (%) 14 Days After Application VIOTR
`COC(=O)c1nc(-c2ccc(I)cc2F)cc(N)c1Cl` [Compound 159] showed a pest or weed control at 140 g/ha of 45 to 59%.

Test system: Key Grass and Sedge Weeds as well as Grass Crops
Assay: Post-emergent Test II herbicidal activity (Table 6)
Assay type: in vivo
Conditions: Triticum aestivum, post-emergence, 336 h, TRZSS (wheat), application rate 70 g ai/ha, read-out: Visual Growth Reduction (%) 14 Days After Application, TRZSS
How it was run: as §1
`COC(=O)c1nc(-c2ccc(I)cc2F)cc(N)c1Cl` [Compound 159] showed a pest or weed control at 70 g/ha of 60 to 74%.

Same assay, conditions: Triticum aestivum, post-emergence, 336 h, TRZSS (wheat), application rate 140 g ai/ha, read-out: Visual Growth Reduction (%) 14 Days After Application, TRZSS
In the case of `COC(=O)c1nc(-c2ccc(I)cc2F)cc(N)c1Cl` [Compound 159], the pest or weed control at 140 g/ha was 60 to 74%.

Same assay, conditions: post-emergence, 336 h, CYPES: yellow nutsedge (Cyperus esculentus), application rate 70 g ai/ha, read-out: Visual Growth Reduction (%) 14 Days After Application, CYPES
Compound `COC(=O)c1nc(-c2ccc(I)cc2F)cc(N)c1Cl` [Compound 159] has a pest or weed control at 70 g/ha of 95 to 100%.

Same assay, conditions: post-emergence, 336 h, CYPES: yellow nutsedge (Cyperus esculentus), application rate 140 g ai/ha, read-out: Visual Growth Reduction (%) 14 Days After Application, CYPES
With `COC(=O)c1nc(-c2ccc(I)cc2F)cc(N)c1Cl` [Compound 159] the pest or weed control at 140 g/ha was 95 to 100%.

Same assay, conditions: post-emergence, 336 h, DIGSA: crabgrass (Digitaria sanguinalis), application rate 70 g ai/ha, read-out: Visual Growth Reduction (%) 14 Days After Application, DIGSA
In the case of `COC(=O)c1nc(-c2ccc(I)cc2F)cc(N)c1Cl` [Compound 159], the pest or weed control at 70 g/ha was 85 to 94%.

Same assay, conditions: post-emergence, 336 h, DIGSA: crabgrass (Digitaria sanguinalis), application rate 140 g ai/ha, read-out: Visual Growth Reduction (%) 14 Days After Application, DIGSA
`COC(=O)c1nc(-c2ccc(I)cc2F)cc(N)c1Cl` [Compound 159] gave a pest or weed control at 140 g/ha of 85 to 94%.

Same assay, conditions: post-emergence, 336 h, ECHCG: barnyardgrass (Echinochloa crus-galli), application rate 70 g ai/ha, read-out: Visual Growth Reduction (%) 14 Days After Application, ECHCG
Compound `COC(=O)c1nc(-c2ccc(I)cc2F)cc(N)c1Cl` [Compound 159] has a pest or weed control at 70 g/ha of 85 to 94%.

Same assay, conditions: post-emergence, 336 h, ECHCG: barnyardgrass (Echinochloa crus-galli), application rate 140 g ai/ha, read-out: Visual Growth Reduction (%) 14 Days After Application, ECHCG
With `COC(=O)c1nc(-c2ccc(I)cc2F)cc(N)c1Cl` [Compound 159] the pest or weed control at 140 g/ha was 95 to 100%.

Same assay, conditions: post-emergence, 336 h, ORYSA: rice (Oryza sativa), application rate 70 g ai/ha, read-out: Visual Growth Reduction (%) 14 Days After Application, ORYSA
Compound `COC(=O)c1nc(-c2ccc(I)cc2F)cc(N)c1Cl` [Compound 159] has a pest or weed control at 70 g/ha of 0 to 29%.

Same assay, conditions: post-emergence, 336 h, ORYSA: rice (Oryza sativa), application rate 140 g ai/ha, read-out: Visual Growth Reduction (%) 14 Days After Application, ORYSA
Compound `COC(=O)c1nc(-c2ccc(I)cc2F)cc(N)c1Cl` [Compound 159] has a pest or weed control at 140 g/ha of 0 to 29%.

Same assay, conditions: post-emergence, 336 h, SETFA: giant foxtail (Setaria faberi), application rate 70 g ai/ha, read-out: Visual Growth Reduction (%) 14 Days After Application, SETFA
Work on `COC(=O)c1nc(-c2ccc(I)cc2F)cc(N)c1Cl` [Compound 159] yielded a pest or weed control at 70 g/ha of 75 to 84%.

Same assay, conditions: post-emergence, 336 h, SETFA: giant foxtail (Setaria faberi), application rate 140 g ai/ha, read-out: Visual Growth Reduction (%) 14 Days After Application, SETFA
For `COC(=O)c1nc(-c2ccc(I)cc2F)cc(N)c1Cl` [Compound 159], the pest or weed control at 140 g/ha was 95 to 100%.

Same assay, conditions: post-emergence, 336 h, SORVU: grain sorghum (Sorghum vulgare), application rate 70 g ai/ha, read-out: Visual Growth Reduction (%) 14 Days After Application, SORVU
Compound `COC(=O)c1nc(-c2ccc(I)cc2F)cc(N)c1Cl` [Compound 159] has a pest or weed control at 70 g/ha of 95 to 100%.

Same assay, conditions: post-emergence, 336 h, SORVU: grain sorghum (Sorghum vulgare), application rate 140 g ai/ha, read-out: Visual Growth Reduction (%) 14 Days After Application, SORVU
For `COC(=O)c1nc(-c2ccc(I)cc2F)cc(N)c1Cl` [Compound 159], the pest or weed control at 140 g/ha was 95 to 100%.

Same assay, conditions: post-emergence, 336 h, ZEAMX: maize, corn (Zea mays), application rate 70 g ai/ha, read-out: Visual Growth Reduction (%) 14 Days After Application, ZEAMX
`COC(=O)c1nc(-c2ccc(I)cc2F)cc(N)c1Cl` [Compound 159] gave a pest or weed control at 70 g/ha of 60 to 74%.

Same assay, conditions: post-emergence, 336 h, ZEAMX: maize, corn (Zea mays), application rate 140 g ai/ha, read-out: Visual Growth Reduction (%) 14 Days After Application, ZEAMX
`COC(=O)c1nc(-c2ccc(I)cc2F)cc(N)c1Cl` [Compound 159] gave a pest or weed control at 140 g/ha of 75 to 84%.

Test system: not given
Assay: not given
Conditions: not given
Compound `COC(=O)c1nc(-c2ccc(I)cc2F)cc(N)c1Cl` [Compound 159] has a melting point of 139.8 to 141.2 °C.
